# Data from patent publication US20210032253A1, “PYRAZOLO[1,5-A][1,3,5]TRIAZINE-2-AMINE DERIVATIVE, PREPARATION METHOD THEREFOR AND MEDICAL USE THEREOF” (JIANGSU HENGRUI MEDICINE CO., LTD., priority 2018, published 2021).
# What was measured:
# Format in all cases: cell-based
# [1] = biological target: T1, adenosine A1 receptor (A1R) (Homo sapiens, UniProt P30542); experiment: Inhibition of adenosine A1 receptor cAMP signaling pathway in CHO-K1/A1R cells (HTRF cAMP dynamic 2 kit); settings: Table 2; for IC50: CHO-K1/A1R cells, cAMP, 10 μM forskolin, 10 nM CPA; for IC50 ratio (A1R/A2aR): selectivity A1R over A2aR
# T1 construct: expressed in transfected cells; host or cells: CHO-K1
# T1 sequence (P30542 1-326): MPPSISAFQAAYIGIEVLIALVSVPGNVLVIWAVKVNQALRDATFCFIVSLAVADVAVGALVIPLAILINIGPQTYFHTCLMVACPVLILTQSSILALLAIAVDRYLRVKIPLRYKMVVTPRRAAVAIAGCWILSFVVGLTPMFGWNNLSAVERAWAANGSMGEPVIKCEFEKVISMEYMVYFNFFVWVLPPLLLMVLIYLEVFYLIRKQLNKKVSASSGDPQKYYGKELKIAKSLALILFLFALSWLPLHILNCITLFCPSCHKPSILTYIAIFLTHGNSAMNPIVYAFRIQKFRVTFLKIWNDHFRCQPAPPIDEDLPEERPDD
# Source text: (§1) Test Example 1. Determination of the inhibitory activities of the compounds of the present disclosure on the adenosine A2a receptor (A2aR) cAMP signaling pathway, the adenosine A1 receptor (A1R) cAMP signaling pathway and the adenosine A3 receptor (A3R) cAMP signaling pathway.
# (§2) The inhibitory activities of the compounds of the present disclosure on the adenosine A2a receptor (A2aR) cAMP signaling pathway, the adenosine A1 receptor cAMP signaling pathway and the adenosine A3 receptor cAMP signaling pathway were determined by the following methods. The experimental method is briefly described as follows:
# CHO-K1/A1R cells were cultured in DMEMIF12 medium containing 10% fetal bovine serum and 1 mg/mL G418. The cells were digested with the cell dissociation buffer during the experiment. The cells were then resuspended in the HBSS buffer containing 20 mM HEPES and 0.1% bovine serum albumin and counted, and the cell density was adjusted to 5×10^5 cells/mL. In 384-well plates, each well was added with 12.5 μL of the cell suspension, and 6.25 μL of the test compounds (4× concentration) formulated with the HBSS buffer containing 20 mM HEPES, 0.1% bovine serum albumin, 54 μM rolipram and 2.7 U/mL adenosine deaminase, and the plates were incubated at room temperature for 30 minutes. Each well was then added with 6.25 μL of forskolin and N6-cyclopentyladenosine (4× concentration) formulated with the HBSS buffer containing 20 mM HEPES, 0.1% bovine serum albumin, 54 μM rolipram and 2.7 U/mL adenosine deaminase, and the plates were incubated at room temperature for 30 minutes. The final concentrations of the compounds were: 100000, 10000, 1000, 100, 10, 1, 0.1 and 0 nM. The final concentration of forskolin was 10 μM. The final concentration of CPA was 10 nM. Intracellular cAMP concentration was determined with cAMP dynamic 2 kits. cAMP-d2 and Anti-cAMP—Eu-Cryptate were diluted respectively with the cAMP lysis buffer at a ratio of 1:4. Each well was added with 12.5 μL of the diluted cAMP-d2, followed by addition of 12.5 μL of the diluted Anti-cAMP—Eu-Cryptate, and the plates were incubated at room temperature in the dark for 1 hour. The HTRF signal values were read by the PHERAstar multi-function microplate reader.
# [2] = biological target: T2, adenosine A2a receptor (A2aR) (Homo sapiens, UniProt P29274); experiment: Inhibition of adenosine A2a receptor cAMP signaling pathway in CHO-K1/A2aR cells (HTRF cAMP dynamic 2 kit); settings: Table 1, 20 nM ethylcarbazole
# T2 construct: expressed in transfected cells; host or cells: CHO-K1
# Source text: as §1, §2
# CHO-K1/A2aR cells were cultured in DMEM/F12 medium containing 10% fetal bovine serum and 800 μg/mL Zeocin™. The cells were digested with the cell dissociation buffer during the experiment. The cells were resuspended in the HBSS buffer containing 20 mM HEPES and 0.1% bovine serum albumin and counted, and the cell density was adjusted to 10^6 cells/mL. In 384-well plates, each well was added with 5 μL of the cell suspension, and 2.5 µL of test compounds (4× concentration) formulated with the HBSS buffer containing 20 mM HEPES, 0.1% bovine serum albumin, 54 μM rolipram and 2.7 U/mL adenosine deaminase, and the plates were incubated at room temperature for 30 minutes. Each well was then added with 2.5 μL of ethylcarbazole (4× concentration) formulated with the balanced salt buffer containing 20 mM HEPES, 0.1% bovine serum albumin, 54 μM rolipram and 2.7 U/mL adenosine deaminase, and the plates were incubated at room temperature for 30 minutes. The final concentrations of the compounds were: 10000, 2000, 400, 80, 16, 3.2, 0.64, 0.128, 0.0256, 0.00512, and 0.001024 nM. The final concentration of ethylcarbazole was 20 nM. Intracellular cAMP concentration was determined with cAMP dynamic 2 kits. cAMP-d2 and Anti-cAMP—Eu-Cryptate were diluted respectively with the cAMP lysis buffer at a ratio of 1:4. Each well was added with 5 μL of the diluted cAMP-d2, followed by addition of 5 μL of the diluted Anti-cAMP—Eu-Cryptate, and the plates were incubated at room temperature in the dark for 1 hour. The HTRF signal values were read by the PHERAstar multi-function microplate reader.
# [3] = biological target: T3, adenosine A3 receptor (A3R) (Homo sapiens, UniProt P0DMS8); experiment: Inhibition of adenosine A3 receptor cAMP signaling pathway in CHO-K1/A3R cells (HTRF cAMP dynamic 2 kit); settings: Table 3; for IC50: CHO-K1/A3R cells, cAMP, 10 μM forskolin, 5 nM 2Cl-IB-MECA; for IC50 ratio (A3R/A2aR): selectivity A3R over A2aR
# T3 construct: expressed in transfected cells; host or cells: CHO-K1
# T3 sequence (P0DMS8 1-318): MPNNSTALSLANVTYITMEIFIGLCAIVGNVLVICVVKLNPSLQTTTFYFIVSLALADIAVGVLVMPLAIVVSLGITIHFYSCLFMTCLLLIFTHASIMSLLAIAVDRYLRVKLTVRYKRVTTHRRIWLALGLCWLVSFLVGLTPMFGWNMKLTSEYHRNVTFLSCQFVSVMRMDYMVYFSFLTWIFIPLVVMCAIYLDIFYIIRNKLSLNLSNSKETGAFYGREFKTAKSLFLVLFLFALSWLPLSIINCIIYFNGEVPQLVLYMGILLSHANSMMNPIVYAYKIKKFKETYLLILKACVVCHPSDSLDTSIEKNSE
# Source text: as §1, §2
# CHO-K1/A3R cells were cultured in DMEMIF12 medium containing 10% fetal bovine serum and 10 μg/mL puromycin. The cells were digested with the cell dissociation buffer during the experiment. The cells were resuspended in the HBSS buffer containing 20 mM HEPES and 0.1% bovine serum albumin and counted, and the cell density was adjusted to 5×10^5 cells/mL. In 384-well plates, each well was added with 12.5 μL of the cell suspension, and 6.25 μL of the test compounds (4× concentration) formulated with the HBSS buffer containing 20 mM HEPES, 0.1% bovine serum albumin, 54 μM rolipram and 2.7 U/mL adenosine deaminase, and the plates were incubated at room temperature for 30 minutes. Each well was then added with 6.25 μL of forskolin and 2Cl-IB-MECA (4× concentration) formulated with the HBSS buffer containing 20 mM HEPES, 0.1% bovine serum albumin, […] rolipram and 2.7 U/mL adenosine deaminase, and the plates were incubated at room temperature for 30 minutes. The final concentrations of the compounds were: 100000, 10000, 1000, 100, 10, 1, 0.1 and 0 nM. The final concentration of forskolin was 10 μM. The final concentration of 2Cl-IB-MECA was 5 nM. Intracellular cAMP concentration was determined with cAMP dynamic 2 kits. cAMP-d2 and Anti-cAMP—Eu-Cryptate were diluted respectively with the cAMP lysis buffer at a ratio of 1:4. Each well was added with 12.5 μL of the diluted cAMP-d2, followed by addition of 12.5 μL of the diluted Anti-cAMP—Eu-Cryptate, and the plates were incubated at room temperature in the dark for 1 hour. The HTRF signal values were read by the PHERAstar multi-function microplate reader. IC50 values for the inhibitory activities of the compounds were calculated by Graphpad Prism software, and are shown in Table 3.
# T2 sequence (P29274 whole entry): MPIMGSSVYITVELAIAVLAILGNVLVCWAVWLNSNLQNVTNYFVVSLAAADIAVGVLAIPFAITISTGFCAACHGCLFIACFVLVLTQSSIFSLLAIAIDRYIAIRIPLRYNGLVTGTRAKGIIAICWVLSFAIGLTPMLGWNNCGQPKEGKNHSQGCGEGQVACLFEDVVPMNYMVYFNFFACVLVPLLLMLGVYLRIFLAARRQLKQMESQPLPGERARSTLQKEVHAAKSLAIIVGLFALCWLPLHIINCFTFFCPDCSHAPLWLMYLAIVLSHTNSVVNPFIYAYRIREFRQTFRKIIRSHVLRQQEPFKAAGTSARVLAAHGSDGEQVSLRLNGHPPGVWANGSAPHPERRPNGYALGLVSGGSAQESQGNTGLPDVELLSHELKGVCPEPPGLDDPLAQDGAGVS
IC50 [1],IC50 ratio (A1R/A2aR) [1],IC50 [2],IC50 [3],IC50 ratio (A3R/A2aR) [3],SMILES
165 nM,90^,1.83 nM,8970 nM,>10^3,"Cc1ccc(-c2nc(N)nc3c(Cc4cccc(CO[C@H]5CCN(C)C5)n4)cnn23)o1 [Example 15, (S)-4-(5-Methylfuran-2-yl)-8-((6-(((1-methylpyrrolidin-3-yl)oxy)methyl)pyridin-2-yl)methyl) pyrazolo[1,5-a][1,3,5]triazin-2-amine]"
316 nM,790^,0.4 nM,4810 nM,>10^3,"Cc1ccc(-c2nc(N)nc3c(Cc4cccc(CO[C@@H]5CCOC5)n4)cnn23)o1 [Example 6, (R)-4-(5-Methylfuran-2-yl)-8-((6-(((tetrahydrofuran-3-yl)oxy)methyl)pyridin-2-yl)methyl)pyrazolo[1,5-a][1,3,5]triazin-2-amine]"
